Patent US20170107179A1 (Tetraphase Pharmaceuticals, Inc., priority 2010, published 2017)
In brackets after ≈: the same amount, converted by molar mass. Where two headings read alike, the source gives them in different places.

Experiments:
S. aureus Smith = assay: Mouse systemic infection (septicemia) model, CD-1 mice; details: Staphylococcus aureus, in Mus musculus, 48 h; for responders at 3 mg/kg: iv, read-out: Percent survival at 48 hours, IV (3 mg/kg); for responders at 30 mg/kg: po, read-out: Percent survival at 48 hours, PO (30 mg/kg)
[1] = system: Gram-negative and Gram-positive organisms (clinical isolates); assay: Broth microdilution MIC against clinical isolates (CLSI M7-A8), Table 9; assay type: cell-based
[2] = Acinetobacter lwoffii, n=29, read-out: MIC50
[3] = Acinetobacter lwoffii, n=29, read-out: MIC90
[4] = Klebsiella aerogenes, Enterobacter aerogenes, n=30
[5] = Klebsiella pneumoniae, Klebsiella pneumonia, n=27
[6] = Salmonella species, n=30, read-out: MIC50
[7] = Staphylococcus aureus, Staphylococcus aureus (MRSA PVL+), n=30, read-out: MIC50
[8] = Staphylococcus aureus, Staphylococcus aureus (MRSA PVL+), n=30, read-out: MIC90
[9] = Stenotrophomonas maltophilia, n=29
[10] = Streptococcus intermedius, n=30
[11] = Streptococcus sanguis, n=18, read-out: MIC50
[12] = Streptococcus sanguis, n=18, read-out: MIC90
[13] = Staphylococcus aureus, Staphylococcus aureus MRSA (includes MRSA PVL+ group), n=105, read-out: MIC50
[14] = Staphylococcus aureus, Staphylococcus aureus MRSA (includes MRSA PVL+ group), n=105, read-out: MIC90

Molecule: CC(C)N1Cc2c(O)c3c(c(C(F)(F)F)c2C1)C[C@H]1C[C@H]2[C@H](N(C)C)C(O)=C(C(N)=O)C(=O)[C@@]2(O)C(O)=C1C3=O [Compound 126]
- responders at 3 mg/kg (S. aureus Smith): 83%
- responders at 30 mg/kg (S. aureus Smith): 100%

Molecule: CC[C@@H](C)N1Cc2c(O)c3c(c(C(F)(F)F)c2C1)C[C@H]1C[C@H]2[C@H](N(C)C)C(O)=C(C(N)=O)C(=O)[C@@]2(O)C(O)=C1C3=O [Compound 128]
- responders at 3 mg/kg (S. aureus Smith): 17%
- responders at 30 mg/kg (S. aureus Smith): 0%

Molecule: CCC(C)(C)N1Cc2c(O)c3c(c(F)c2C1)C[C@H]1C[C@H]2[C@H](N(C)C)C(O)=C(C(N)=O)C(=O)[C@@]2(O)C(O)=C1C3=O [Compound 129]
- responders at 3 mg/kg (S. aureus Smith): 50%
- responders at 30 mg/kg (S. aureus Smith): 0%

Molecule: CC[C@@H](C)N1Cc2c(O)c3c(c(F)c2C1)C[C@H]1C[C@H]2[C@H](N(C)C)C(O)=C(C(N)=O)C(=O)[C@@]2(O)C(O)=C1C3=O [Compound 130]
- responders at 3 mg/kg (S. aureus Smith): 33%
- responders at 30 mg/kg (S. aureus Smith): 83%

Molecule: CN(C)CC(=O)N1Cc2c(O)c3c(c(F)c2C1)C[C@H]1C[C@H]2[C@H](N(C)C)C(O)=C(C(N)=O)C(=O)[C@@]2(O)C(O)=C1C3=O [Compound 131]
- responders at 3 mg/kg (S. aureus Smith): 100%
- responders at 30 mg/kg (S. aureus Smith): 17%

Molecule: CN(C)[C@@H]1C(O)=C(C(N)=O)C(=O)[C@@]2(O)C(O)=C3C(=O)c4c(O)c5c(c(F)c4C[C@H]3C[C@@H]12)CN(C1CCC1)C5 [Compound 132]
- responders at 3 mg/kg (S. aureus Smith): 50%
- responders at 30 mg/kg (S. aureus Smith): 50%

Molecule: CC(C)N1Cc2c(O)c3c(c(N(C)C)c2C1)C[C@H]1C[C@H]2[C@H](N(C)C)C(O)=C(C(N)=O)C(=O)[C@@]2(O)C(O)=C1C3=O [Compound 135]
- responders at 3 mg/kg (S. aureus Smith): 100%
- responders at 30 mg/kg (S. aureus Smith): 100%

Molecule: CC(C)[C@H](C)N1Cc2c(O)c3c(c(F)c2C1)C[C@H]1C[C@H]2[C@H](N(C)C)C(O)=C(C(N)=O)C(=O)[C@@]2(O)C(O)=C1C3=O [Compound 137]
- responders at 3 mg/kg (S. aureus Smith): 33%
- responders at 30 mg/kg (S. aureus Smith): 33%

Molecule: C[C@@H](O)[C@H]1C(=O)N2C(C(=O)O)=C(S[C@@H]3CN[C@H](C(=O)Nc4cccc(C(=O)O)c4)C3)[C@H](C)[C@H]12 [Ertapenem]
- MIC50 [1, 2]: ≤ 1 µg/mL
- MIC90 [1, 3]: 4 µg/mL (≈ 8.41 µM)
- MIC50 ([1]; Enterobacter cloacae, n=29): ≤ 1 µg/mL
- MIC90 ([1]; Enterobacter cloacae, n=29): > 8 µg/mL
- MIC50 ([1]; Escherichia coli, n=40): ≤ 1 µg/mL
- MIC90 ([1]; Escherichia coli, n=40): ≤ 1 µg/mL
- MIC50 ([1]; Kiebsielia oxytoca, n=30): ≤ 1 µg/mL
- MIC90 ([1]; Kiebsielia oxytoca, n=30): ≤ 1 µg/mL
- MIC50 [1, 4]: ≤ 1 µg/mL
- MIC90 [1, 4]: ≤ 1 µg/mL
- MIC50 [1, 5]: ≤ 1 µg/mL
- MIC90 [1, 5]: 8 µg/mL (≈ 16.8 µM)
- MIC50 ([1]; Morganella morganii, n=30): ≤ 1 µg/mL
- MIC90 ([1]; Morganella morganii, n=30): ≤ 1 µg/mL
- MIC50 ([1]; Proteus vulgaris, n=29): ≤ 1 µg/mL
- MIC90 ([1]; Proteus vulgaris, n=29): ≤ 1 µg/mL
- MIC50 [1, 6]: ≤ 1 µg/mL
- MIC50 ([1]; Serratia marcescens, n=30): ≤ 1 µg/mL
- MIC90 ([1]; Serratia marcescens, n=30): ≤ 1 µg/mL
- MIC50 [1, 7]: 4 µg/mL (≈ 8.41 µM)
- MIC90 [1, 8]: 8 µg/mL (≈ 16.8 µM)
- MIC50 [1, 9]: > 8 µg/mL
- MIC90 [1, 9]: > 8 µg/mL
- MIC50 ([1]; Streptococcus anginosus, n=20): 0.12 µg/mL (≈ 0.252 µM)
- MIC90 ([1]; Streptococcus anginosus, n=20): 0.25 µg/mL (≈ 0.526 µM)
- MIC50 [1, 10]: 0.06 µg/mL (≈ 0.126 µM)
- MIC90 [1, 10]: 0.5 µg/mL (≈ 1.05 µM)
- MIC50 ([1]; Streptococcus mitis, n=29): 0.25 µg/mL (≈ 0.526 µM)
- MIC90 ([1]; Streptococcus mitis, n=29): > 1 µg/mL
- MIC50 [1, 11]: 0.12 µg/mL (≈ 0.252 µM)
- MIC90 [1, 12]: 0.5 µg/mL (≈ 1.05 µM)

Molecule: C[C@H]1COc2c(N3CCN(C)CC3)c(F)cc3c(=O)c(C(=O)O)cn1c23 [Levofloxacin, levofloxacin]
- MIC50 [1, 2]: ≤ 0.25 µg/mL
- MIC90 [1, 3]: ≤ 0.25 µg/mL
- MIC50 ([1]; Enterobacter cloacae, n=29): 1 µg/mL (≈ 2.77 µM)
- MIC90 ([1]; Enterobacter cloacae, n=29): > 4 µg/mL
- MIC50 ([1]; Escherichia coli, n=40): ≤ 0.25 µg/mL
- MIC90 ([1]; Escherichia coli, n=40): > 4 µg/mL
- MIC50 ([1]; Kiebsielia oxytoca, n=30): ≤ 0.25 µg/mL
- MIC90 ([1]; Kiebsielia oxytoca, n=30): 4 µg/mL (≈ 11.1 µM)
- MIC50 [1, 4]: ≤ 0.25 µg/mL
- MIC90 [1, 4]: ≤ 0.25 µg/mL
- MIC50 [1, 5]: 1 µg/mL (≈ 2.77 µM)
- MIC90 [1, 5]: > 4 µg/mL
- MIC50 ([1]; Morganella morganii, n=30): ≤ 0.25 µg/mL
- MIC90 ([1]; Morganella morganii, n=30): 4 µg/mL (≈ 11.1 µM)
- MIC50 ([1]; Proteus vulgaris, n=29): ≤ 0.25 µg/mL
- MIC90 ([1]; Proteus vulgaris, n=29): 1 µg/mL (≈ 2.77 µM)
- MIC50 [1, 6]: ≤ 0.25 µg/mL
- MIC90 ([1]; Salmonella species, n=30, read-out: MIC90): ≤ 0.25 µg/mL
- MIC50 ([1]; Serratia marcescens, n=30): ≤ 0.25 µg/mL
- MIC90 ([1]; Serratia marcescens, n=30): 2 µg/mL (≈ 5.53 µM)
- MIC90 ([1]; Shigella species, n=30, read-out: MIC90): 0.5 µg/mL (≈ 1.38 µM)
- MIC50 [1, 7]: 0.25 µg/mL (≈ 0.692 µM)
- MIC90 [1, 8]: > 2 µg/mL
- MIC50 [1, 13]: > 2 µg/mL
- MIC90 [1, 14]: > 2 µg/mL
- MIC50 [1, 9]: 0.5 µg/mL (≈ 1.38 µM)
- MIC90 [1, 9]: > 4 µg/mL
- MIC50 ([1]; Streptococcus anginosus, n=20): 0.5 µg/mL (≈ 1.38 µM)
- MIC90 ([1]; Streptococcus anginosus, n=20): 0.5 µg/mL (≈ 1.38 µM)
- MIC50 [1, 10]: 1 µg/mL (≈ 2.77 µM)
- MIC90 [1, 10]: 2 µg/mL (≈ 5.53 µM)
- MIC50 ([1]; Streptococcus mitis, n=29): 1 µg/mL (≈ 2.77 µM)
- MIC90 ([1]; Streptococcus mitis, n=29): 2 µg/mL (≈ 5.53 µM)
- MIC50 [1, 11]: 0.5 µg/mL (≈ 1.38 µM)
- MIC90 [1, 12]: 2 µg/mL (≈ 5.53 µM)

Molecule: CN[C@H](CC(C)C)C(=O)N[C@H]1C(=O)N[C@@H](CC(N)=O)C(=O)N[C@H]2C(=O)N[C@H]3C(=O)N[C@H](C(=O)N[C@H](C(=O)O)c4cc(O)cc(O)c4-c4cc3ccc4O)[C@H](O)c3ccc(c(Cl)c3)Oc3cc2cc(c3O[C@@H]2O[C@H](CO)[C@@H](O)[C@H](O)[C@H]2O[C@H]2C[C@](C)(N)[C@H](O)[C@H](C)O2)Oc2ccc(cc2Cl)[C@H]1O [Vancomycin, vancomycin]
- MIC50 ([1]; Staphylococcus aureus (MRSA PVL+), n=30, read-out: MIC50): 1 µg/mL (≈ 0.69 µM)
- MIC90 [1, 8]: 1 µg/mL (≈ 0.69 µM)
- MIC50 [1, 13]: 1 µg/mL (≈ 0.69 µM)
- MIC90 [1, 14]: 1 µg/mL (≈ 0.69 µM)
- MIC50 ([1]; Streptococcus anginosus, n=20, read-out: MIC50): 0.5 µg/mL (≈ 0.345 µM)
- MIC90 ([1]; Streptococcus anginosus, n=20, read-out: MIC90): 0.5 µg/mL (≈ 0.345 µM)
- MIC50 ([1]; Streptococcus intermedius, n=30, read-out: MIC50): 0.5 µg/mL (≈ 0.345 µM)
- MIC90 ([1]; Streptococcus intermedius, n=30, read-out: MIC90): 0.5 µg/mL (≈ 0.345 µM)
- MIC50 ([1]; Streptococcus mitis, n=29, read-out: MIC50): 0.5 µg/mL (≈ 0.345 µM)
- MIC90 ([1]; Streptococcus mitis, n=29, read-out: MIC90): 0.5 µg/mL (≈ 0.345 µM)
- MIC50 [1, 11]: 0.5 µg/mL (≈ 0.345 µM)
- MIC90 [1, 12]: 1 µg/mL (≈ 0.69 µM)

Molecule: colistin
- MIC50 ([1]; Acinetobacter lwoffii, n=29): ≦0.12 μg/ml
- MIC90 ([1]; Acinetobacter lwoffii, n=29): >2 µg/mL
- MIC50 ([1]; Enterobacter aerogenes, n=30): ≦0.12 μg/ml
- MIC90 ([1]; Enterobacter aerogenes, n=30): ≦0.12 μg/ml
- MIC50 ([1]; Enterobacter cloacae, n=29): ≦0.12 μg/ml
- MIC90 ([1]; Enterobacter cloacae, n=29): >2 µg/mL
- MIC50 ([1]; Escherichia coli, n=40): 0.25 µg/mL
- MIC90 ([1]; Escherichia coli, n=40): 0.5 µg/mL
- MIC50 ([1]; Kiebsielia oxytoca, n=30): ≦0.12 μg/ml
- MIC90 ([1]; Kiebsielia oxytoca, n=30): 0.25 µg/mL
- MIC50 ([1]; Klebsiella pneumonia, n=27): 0.25 µg/mL
- MIC90 ([1]; Klebsiella pneumonia, n=27): 0.5 µg/mL
- MIC50 ([1]; Morganella morganii, n=30): >2 µg/mL
- MIC90 ([1]; Morganella morganii, n=30): >2 µg/mL
- MIC50 ([1]; Proteus vulgaris, n=29): >2 µg/mL
- MIC90 ([1]; Proteus vulgaris, n=29): >2 µg/mL
- MIC50 ([1]; Salmonella species, n=30): ≦0.12 μg/ml
- MIC90 ([1]; Salmonella species, n=30): 0.5 µg/mL
- MIC50 ([1]; Serratia marcescens, n=30): >2 µg/mL
- MIC90 ([1]; Serratia marcescens, n=30): >2 µg/mL
- MIC50 ([1]; Shigella species, n=30): ≦0.12 μg/ml
- MIC90 ([1]; Shigella species, n=30): ≦0.12 μg/ml
- MIC50 [1, 9]: 0.25 µg/mL
- MIC90 [1, 9]: >2 µg/mL
